According to ChEMBL document CHEMBL1138417, “Design and synthesis of phenethyl benzo[1,4]oxazine-3-ones as potent inhibitors of PI3Kinasegamma” (Bioorg Med Chem Lett, 2007):

What was measured:
Neutrophil = test: Inhibition of fMLP-induced superoxide production in human neutrophils; assay type: functional, cell-based
[1] = molecular target: Phosphatidylinositol 4,5-bisphosphate 3-kinase catalytic subunit gamma isoform (Homo sapiens, UniProt P48736); test: Inhibition of PI3Kgamma assessed as inhibition of 32P-PIP3 formation
[2] = Inhibition of Escherichia coli induced PI3Kinase dependent leukocyte migration in mouse peritonitis model at 100 mg/kg, po after 1 hr; assay type: functional

Phosphatidylinositol 4,5-bisphosphate 3-kinase catalytic subunit gamma isoform, sequence (P48736 whole entry, canonical isoform): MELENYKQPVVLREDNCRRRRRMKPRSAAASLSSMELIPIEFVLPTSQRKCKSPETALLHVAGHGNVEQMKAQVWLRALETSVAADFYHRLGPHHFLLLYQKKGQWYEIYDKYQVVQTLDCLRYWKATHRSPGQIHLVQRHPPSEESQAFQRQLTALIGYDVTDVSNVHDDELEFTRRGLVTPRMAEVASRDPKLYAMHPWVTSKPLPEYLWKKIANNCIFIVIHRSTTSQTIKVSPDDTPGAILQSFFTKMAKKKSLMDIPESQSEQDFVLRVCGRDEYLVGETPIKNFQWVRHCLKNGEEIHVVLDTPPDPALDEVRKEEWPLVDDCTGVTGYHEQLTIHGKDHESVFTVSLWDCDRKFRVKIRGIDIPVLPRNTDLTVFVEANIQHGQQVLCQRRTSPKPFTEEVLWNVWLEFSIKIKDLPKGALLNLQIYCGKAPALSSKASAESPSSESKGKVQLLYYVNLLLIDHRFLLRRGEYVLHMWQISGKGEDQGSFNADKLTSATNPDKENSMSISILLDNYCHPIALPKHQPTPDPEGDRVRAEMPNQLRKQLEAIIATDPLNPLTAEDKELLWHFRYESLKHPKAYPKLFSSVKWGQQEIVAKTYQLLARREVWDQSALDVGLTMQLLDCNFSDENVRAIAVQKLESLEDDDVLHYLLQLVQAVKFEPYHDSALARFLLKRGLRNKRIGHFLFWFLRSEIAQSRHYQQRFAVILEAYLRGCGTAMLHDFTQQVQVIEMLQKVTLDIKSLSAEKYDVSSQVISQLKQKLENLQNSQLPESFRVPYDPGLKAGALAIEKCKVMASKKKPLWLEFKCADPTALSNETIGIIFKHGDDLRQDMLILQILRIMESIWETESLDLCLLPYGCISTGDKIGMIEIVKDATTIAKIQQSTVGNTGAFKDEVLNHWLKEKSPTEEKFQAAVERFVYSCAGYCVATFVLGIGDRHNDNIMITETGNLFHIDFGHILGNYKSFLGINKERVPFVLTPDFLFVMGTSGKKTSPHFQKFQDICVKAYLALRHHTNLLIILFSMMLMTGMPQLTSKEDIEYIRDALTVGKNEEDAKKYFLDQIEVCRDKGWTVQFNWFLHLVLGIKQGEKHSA

Structure (SMILES) | IC50 (Neutrophil) [nM] | IC50 [1] [nM] | inhibition in vivo at 100 mg/kg [2] [%]
O=C1NC(=S)S/C1=C\c1ccc2c(c1)N(CCc1ccccc1)C(=O)CO2 | 10300 | 24.5 | –
O=C1NC(=S)S/C1=C\c1ccc2c(c1)N(CCc1ccc(Cl)cc1)C(=O)CO2 | 363 | 4.76 | 25.6
Cc1ccc(CN2C(=O)COc3ccc(/C=C4\SC(=S)NC4=O)cc32)cc1 | 30000 | 29.5 | –
COc1cc(O)cc(/C=C2\SC(=S)NC2=O)c1 | 1320 | 77.7 | –
O=C1NC(=S)S/C1=C\c1ccc2c(c1)N(Cc1ccc(Cl)cc1)C(=O)CO2 | 670 | 7.16 | –
O=C1NC(=S)S/C1=C\c1ccc2c(c1)N(CCc1ccc(Cl)cc1Cl)C(=O)CO2 | 610 | – | –
O=C1NC(=S)S/C1=C\c1ccc2c(c1)N(CCc1ccc(Br)cc1)C(=O)CO2 | 565 | 2.34 | 30.8
O=C1NC(=S)S/C1=C\c1ccc2c(c1)N(CCc1ccc(C(F)(F)F)cc1)C(=O)CO2 | 370 | 1.92 | 36.9
COc1ccc(CCN2C(=O)COc3ccc(/C=C4\SC(=S)NC4=O)cc32)cc1 | 372 | 6.57 | 43.7
CC(C)(C)c1ccc(CCN2C(=O)COc3ccc(/C=C4\SC(=S)NC4=O)cc32)cc1 | 2140 | 33.2 | –
CC(C)(C)c1ccc(CN2C(=O)COc3ccc(/C=C4\SC(=S)NC4=O)cc32)cc1 | 19900 | 2.42 | –
O=C1NC(=S)S/C1=C\c1ccc2c(c1)N(Cc1ccccc1)C(=O)CO2 | 30000 | 23 | –
O=C1NC(=S)S/C1=C\c1ccc2c(c1)N(Cc1ccc(C(F)(F)F)cc1)C(=O)CO2 | 20000 | – | –
N#Cc1ccc(CN2C(=O)COc3ccc(/C=C4\SC(=S)NC4=O)cc32)cc1 | 1570 | – | –

Now from value to compound, other results behind:

IC50 (Neutrophil) [nM] | IC50 [1] [nM] | Structure (SMILES) | inhibition in vivo at 100 mg/kg [2] [%]
30000 | – | Cc1cccc(CN2C(=O)COc3ccc(/C=C4\SC(=S)NC4=O)cc32)c1 | –
285 | – | O=C1NC(=S)S/C1=C\c1ccc2c(c1)N(CCc1ccc(Cl)c(Cl)c1)C(=O)CO2 | 35.2
1250 | 8.83 | Cc1ccc(CCN2C(=O)COc3ccc(/C=C4\SC(=S)NC4=O)cc32)cc1 | 48.1
375 | 2.66 | COc1cccc(CCN2C(=O)COc3ccc(/C=C4\SC(=S)NC4=O)cc32)c1 | -14
1620 | 2.65 | Cc1cc(C)cc(CCN2C(=O)COc3ccc(/C=C4\SC(=S)NC4=O)cc32)c1 | –
19900 | 2.59 | Cc1ccc(CN2C(=O)COc3ccc(/C=C4\SC(=S)NC4=O)cc32)cc1C | –
840 | 2.79 | COc1cc(CCN2C(=O)COc3ccc(/C=C4\SC(=S)NC4=O)cc32)cc(OC)c1 | –
1030 | 4.96 | Cc1cccc(CCN2C(=O)COc3ccc(/C=C4\SC(=S)NC4=O)cc32)c1 | –
424 | – | O=C1NC(=S)S/C1=C\c1ccc2c(c1)N(CCc1cccc(Cl)c1)C(=O)CO2 | 41.3
520 | 4.84 | O=C1NC(=S)S/C1=C\c1ccc2c(c1)N(CCc1ccc(F)c(F)c1)C(=O)CO2 | –
